Among the data in US4162316A (priority 1975, dated 1979) are ED50 values, retold here.

A word on the ED50: it is the dose at which the effect has come halfway, by size or by number of responders.

For this assay, the system named is male guinea-pigs. Nature of the assay: animal or person. In kind it is in vivo. The note with it: Cavia porcellus, ip, 2 h, read-out: Antitussive activity ED50-value (i.p.).
Consider `COc1ccccc1N1CCN(C(Cc2cccc(C)c2)c2ccccc2)CC1` (racemic) [Compound 31, dl-1-(2-Methoxyphenyl)-4-[1-phenyl-2-(3-tolyl)ethyl]-piperazine], for which the median effective dose (ED50) was approximately 6 mg/kg. `COc1ccc2c3c1O[C@H]1[C@@H](O)C=C[C@H]4[C@@H](C2)N(C)CC[C@@]341` [L, Codeine phosphate, reference compound]: the ED50 was found to be 12.2 mg/kg.

With `COc1ccccc1N1CCN(C(Cc2cccc(C)c2)c2ccccc2)CC1` (stereo not drawn) [Compound 32, l-1-(2-Methoxyphenyl)-4-[1-phenyl-2-(3-tolyl)ethyl]piperazine], the ED50 was approximately 6 mg/kg.
